Results on 85 compounds are retold here after a melting point compilation (Tetko et al.).

For orientation: melting point means the temperature, or range, at which the solid turns liquid.

The compound `COc1ccc(CC(=O)NCc2ccc(C(=O)O)cc2)cc1` came in with a melting point of 229 to 231 °C.

In turn, `Nc1ccc(C(=O)O)nc1Cl` had a melting point of 214 to 216 °C.

For `Nc1ccc(N2CCOCC2)cc1C(=O)O`, the melting point was 235 to 237 °C.

As for `CCOC(=O)CN(CCC#N)c1ccc(OC)cc1`, the melting point lay in the range of 61 to 63 °C.

`CC(Cl)C(=O)Nc1ccc(C(F)(F)F)cc1` (stereo not given) registered a melting point of 130 to 132 °C.

`Oc1ccc(CN2CCCC2)c2cccnc12` displayed a melting point of 112 to 114 °C.

The compound `Cc1nc(Cl)c2cc[nH]c2n1` returned a melting point of 199 to 201 °C.

`Cc1ccc(CC(=O)Nc2cccc(C(C)O)c2)cc1` (stereo not given) showed a melting point of 121 to 123 °C.

In the case of `Nc1ccc(S(=O)(=O)Nc2ccc(F)cc2)cc1`, the melting point lay in the range of 162 to 164 °C.

With `CC(C)(C)OC(=O)Nc1ccc(F)c(N)c1`, the melting point lay in the range of 122 to 124 °C.

In turn, `Nc1cc(Cl)c(OC(F)F)c(Cl)c1` showed a melting point of 82 to 84 °C.

`COc1ccccc1NC(=O)C(Br)C(C)C` (stereo not given) displayed a melting point of 107 to 109 °C.

Compound `Cc1ncc(CN)c(O)n1` came in with a melting point of 194 to 196 °C.

The compound `O=C(Nc1cccc2c1CCCN2)c1ccc(F)cc1` returned a melting point of 156 to 158 °C.

With `CNc1ncnc2nc[nH]c12`, the melting point was in the range of 316 to 318 °C.

Take `Cc1cc(N)n(-c2nc3ccccc3[nH]2)n1`: the melting point fell in the range of 203 to 205 °C.

For `O=C(O)CNC(=O)C1CCCCC1`, the melting point fell in the range of 153 to 157 °C.

As for `CC(C)N1CCc2c(sc(N)c2C#N)C1`, the melting point was in the range of 167 to 169 °C.

In turn, `Nc1ccc2oc(=O)[nH]c2c1` yielded a melting point of 204 to 206 °C.

On to `O=S(=O)(Cl)C=Cc1ccc(Br)cc1`, for which the melting point fell in the range of 149 to 151 °C.

Compound `O=C(c1ccccc1)c1c(Cl)cccc1Cl` yielded a melting point of 82 to 84 °C.

Compound `O=C(O)c1csc(COc2ccc(Cl)cc2)n1` showed a melting point of 217 to 219 °C.

For `Cc1cccc(C)c1Nc1nnc(S)s1`, the melting point fell in the range of 266 to 268 °C.

As to `Nc1ccc(Cl)c(C(=O)NC2CC2)c1`, the melting point lay within 126 to 128 °C.

`Cc1ccc(CNC(=O)C2CCNCC2)cc1F`: the melting point lay in the range of 134 to 136 °C.

Compound `N#Cc1ccc(-c2ccccc2)[nH]c1=O` had a melting point of 297 to 299 °C.

Take `O=c1oc2ccccc2nc1NO`: the melting point lay within 254 to 256 °C.

In the case of `O=C(O)c1cc(F)cc(S(=O)(=O)Cl)c1Br`, the melting point fell in the range of 186 to 188 °C.

With `COc1cc(Cl)c(Cl)cc1C(=O)O`, the melting point was 148 to 150 °C.

`O=C(O)c1ccc(CNC2=NS(=O)(=O)c3ccccc32)cc1` gave a melting point of 303 to 305 °C.

Regarding `O=C(O)COCCN1CCN(C(c2ccccc2)c2ccc(Cl)cc2)CC1` (stereo not given), the melting point lay in the range of 224 to 226 °C.

For `NC(=O)c1csc(Br)c1`, the melting point is 142 to 144 °C.

For `Nc1ncc(Br)cc1F`, the melting point fell in the range of 87 to 89 °C.

As to `Cc1ccc(Cn2nc(C)c(C=O)c2C)cc1`, the melting point is 65 to 67 °C.

In turn, `CCOC(=O)c1cnn2c(O)cc(CCl)nc12` gave a melting point of 215 to 217 °C.

Consider `O=[N+]([O-])c1cc(F)ccc1S(=O)(=O)Cl`, for which the melting point was in the range of 40 to 44 °C.

On to `Clc1ccnc(C2=NCCO2)c1`, for which the melting point was in the range of 73 to 75 °C.

`CC(C)c1nc(C=O)c2ccccn12` gave a melting point of 95 to 97 °C.

In the case of `O=C(O)CNC(=O)c1ccccc1C(F)(F)F`, the melting point lay within 152 to 154 °C.

In turn, `Sc1nc(-c2cccs2)c(-c2cccs2)[nH]1` yielded a melting point of 293 to 295 °C.

Compound `O=C(O)c1nn(-c2ccccc2)cc1O` registered a melting point of 154 to 156 °C.

Take `CC1(c2ccc(S(C)(=O)=O)cc2)NC(=O)NC1=O` (stereo not given): the melting point is 228 to 230 °C.

On to `O=Cc1c(Cl)cccc1OC(F)F`, for which the melting point was in the range of 37 to 39 °C.

With `O=C1COc2cc(S(=O)(=O)Cl)c(Br)cc2N1`, the melting point was 223 to 225 °C.

`Cc1nc(-c2ccc(Cl)s2)sc1C(=O)O` gave a melting point of 255 to 257 °C.

Consider `O=C(O)c1cc(S(=O)(=O)N2CCCC2)ccc1Cl`, for which the melting point lay in the range of 194 to 196 °C.

For `Nc1ccc(Oc2cccc(F)c2)c2ccncc12`, the melting point fell in the range of 137 to 139 °C.

In turn, `Cc1ccc(S(=O)(=O)NC(CC(N)=O)C(=O)O)cc1C` (stereo not given) had a melting point of 179 to 181 °C.

In the case of `CC(Cl)C(=O)Nc1ccc(Cl)cn1` (stereo not given), the melting point is 88 to 90 °C.

Compound `CN1CC(=O)Nc2cc(Cl)ccc21` yielded a melting point of 181 to 183 °C.

Regarding `CC(=O)NC(C)c1ccc(C(=O)CCl)cc1` (stereo not given), the melting point was in the range of 152 to 156 °C.

In the case of `COc1ccc(CCNC(C)=O)cc1S(N)(=O)=O`, the melting point lay in the range of 194 to 196 °C.

Compound `Nc1cccc(S(=O)(=O)N2CCCC2)c1` came in with a melting point of 156 to 158 °C.

In turn, `O=C1NC(=O)C(c2cccs2)(C2CC2)N1` (stereo not given) registered a melting point of 199 to 201 °C.

Compound `O=S(=O)(c1cccc(CCl)c1)N1CCOCC1` had a melting point of 92 to 94 °C.

In the case of `Nc1ccc(-n2ncc3ccccc32)cc1`, the melting point fell in the range of 158 to 160 °C.

For `Nc1cc(Br)c(S(N)(=O)=O)cc1[N+](=O)[O-]`, the melting point fell in the range of 268 to 270 °C.

The compound `Cc1ccc(C)c2[nH]c(C(=O)O)cc12` showed a melting point of 206 to 208 °C.

As to `COc1cc(Br)[nH]n1`, the melting point lay within 70 to 72 °C.

`CC(=O)c1cnn(-c2ccccn2)c1C` gave a melting point of 75 to 77 °C.

Turning to `CN1C(=O)CCC(C(=O)O)C1c1cccs1` (stereo not given), the melting point was 154 to 156 °C.

As to `Nc1ccccc1N1CCCC1=O`, the melting point was in the range of 98 to 102 °C.

Take `O=C(COc1cccc2ccccc12)N1CCNCC1`: the melting point is 141 to 143 °C.

As to `CNC(=O)C1Cc2ccccc2CN1` (stereo not given), the melting point was in the range of 97 to 99 °C.

`CCCOc1ccc(OCCBr)cc1` displayed a melting point of 45 to 47 °C.

Regarding `CC(C)c1ccc(-n2ccnc2SCC(=O)O)cc1`, the melting point lay in the range of 80 to 82 °C.

Compound `O=C(O)c1ccc(O)c(-c2ccccc2)c1` returned a melting point of 142 to 144 °C.

Turning to `NS(=O)(=O)c1cnn(-c2ccccc2)c1`, the melting point lay within 196 to 198 °C.

In turn, `N#Cc1c(O)c(Cl)c(Cl)c(C#N)c1Cl` returned a melting point of 256 to 258 °C.

`CC1(c2ccc(Cl)c(Cl)c2)NC(=O)NC1=O` (stereo not given) returned a melting point of 203 to 207 °C.

As to `CCCCc1ccc(NS(=O)(=O)c2ccc(C)c(C(=O)O)c2)cc1`, the melting point lay in the range of 192 to 194 °C.

As to `NNc1nccc2sccc12`, the melting point is 191 to 193 °C.

`COc1ccc(CNc2nccs2)cc1` showed a melting point of 147 to 149 °C.

Consider `NC(=O)NCC(=O)O`, for which the melting point lay within 174 to 176 °C.

As for `CCOC1CCN(C(=O)Nc2cccc(C(C)=O)c2)CC1`, the melting point was 95 to 97 °C.

Turning to `Cc1cc(S(=O)(=O)Cl)cc(C(=O)O)c1F`, the melting point was in the range of 169 to 171 °C.

The compound `c1ccc2[nH]c(C3CCNCC3)cc2c1` had a melting point of 192 to 194 °C.

For `O=C1OCCN1c1ccc(S(=O)(=O)Cl)cc1`, the melting point is 168 to 170 °C.

In turn, `COc1ccc2[nH]c(C(=O)O)cc2c1OC` returned a melting point of 221 to 223 °C.

The compound `Cc1nc(NC(=O)CCl)sc1C` showed a melting point of 144 to 146 °C.

In turn, `O=C1Nc2ccccc2S(=O)(=O)N1` had a melting point of 301 to 303 °C.

`COC(=O)Cn1nc2ccc(Cl)nn2c1=O`: the melting point fell in the range of 158 to 160 °C.

The compound `O=C(O)COc1ccc2c(c1)CCC2` came in with a melting point of 154 to 156 °C.

In the case of `Cn1c(S)nnc1C(F)F`, the melting point was 171 to 173 °C.

As to `OCc1cnc2ccccn12`, the melting point lay within 123 to 125 °C.
